Results on 7 compounds are retold here after ChEMBL document CHEMBL5365543, “Benzamidine Conjugation Converts Expelled Potential Active Agents into Antifungals against Drug-Resistant Fungi” (J Med Chem, 2023).

Data set [1] is described as follows: Induction of hemolysis in mouse RBC cells at 2 to 32 microg/ml incubated for 60 mins by absorbance based analysis. The conditions noted are these: red blood cells (erythrocytes), at 2 to 32 µg/mL, dose 2-32 µg/ml, read-out: Activity. The class given is toxicity, cell-based, Erythrocyte.
The test system of data set [2] is Candida albicans. Briefly: Antifungal activity against wild-type Candida albicans SC5314 assessed as inhibition of fungal growth measured after 24 hrs by CLSI based microtiter plate analysis. The class given is functional.
The nature of data set [3]: Cytotoxicity against human HBE cells assessed as inhibition of cell growth measured after 4 hrs by MTT assay. The class given is toxicity, cell-based.
In data set [4] the test system is Candida albicans. Briefly: microbe, parasite or virus in culture. The class given is functional. The conditions noted are these: DSY654, time 24 hrs.
Description: Antifungal activity against efflux pump-deficient Candida albicans DSY654 assessed as inhibition of fungal growth measured after 24 hrs by CLSI based microtiter plate analysis
Data set [5] can be described thus: Cytotoxicity against mouse L929 cells assessed as inhibition of cell growth measured after 4 hrs by MTT assay. The class given is toxicity, cell-based. On the technique in general: Formazan colour is commonly taken as a measure of viable cells.
The subject of data set [6] is Candida albicans. Briefly: Antifungal activity against clinical isolate Candida albicans SCMRRIR34MPG2A harbouring MRR1 mutation overexpressing efflux pump MdrL assessed as inhibition of fungal growth measured after 24 hrs by CLSI based microtiter plate analysis. The class given is functional.
Data set [7] has as its system Candida albicans. Briefly: Antifungal activity against clinical isolate fluconazole-resistant Candida albicans Gu5 harbouring TAC1 mutation overexpressing efflux pump CdrL and Cdr2 assessed as inhibition of fungal growth measured after 24 hrs by CLSI based microtiter plate analysis. The data set is classed as functional.
In data set [8] the test system is Candida albicans. Briefly: Antifungal activity against clinical isolate Candida albicans YEM13 overexpressing efflux pump MdrL assessed as inhibition of fungal growth measured after 24 hrs by CLSI based microtiter plate analysis. The class given is functional.
Data set [9] has as its system Candida tropicalis. Briefly: Antifungal activity against clinical isolate fluconazole-resistant Candida tropicalis CT10 assessed as inhibition of fungal growth measured after 24 hrs by CLSI based microtiter plate analysis. The data set is classed as functional.
The subject of data set [10] is Cryptococcus neoformans. Briefly: Antifungal activity against clinical isolate fluconazole-resistant Cryptococcus neoformans H99 assessed as inhibition of fungal growth measured after 24 hrs by CLSI based microtiter plate analysis. The data set is classed as functional.
In data set [11] the test system is Candida albicans. Briefly: Antifungal activity against clinical isolate Candida albicans SCUPC2R14MPG2A harbouring UPC2 mutation overexpressing […] Erg11 assessed as inhibition of fungal growth measured after 24 hrs by CLSI based microtiter plate analysis. The data set is classed as functional.
For data set [12], the system named is Candida albicans. Briefly: Antifungal activity against clinical isolate fluconazole-resistant Candida albicans G5 harbouring MRR1 mutation overexpressing MdrL assessed as inhibition of fungal growth measured after 24 hrs by CLSI based microtiter plate analysis. The data set is classed as functional.
Data set [13] in a line: Drug accumulation in wild-type Candida albicans SC5314 at 50 microg/ml incubated for 3 hrs by HPLC analysis. The data set is classed as ADME. The conditions noted are these: dose 50 µg/ml.
Data set [14] has as its system [Candida] auris. Briefly: Antifungal activity against clinical isolate fluconazole-resistant Candida auris CBS12774 assessed as inhibition of fungal growth measured after 24 hrs by CLSI based microtiter plate analysis. The data set is classed as functional. The conditions noted are these: Candidozyma auris.
Data set [15] relates to Candida albicans. Briefly: Antifungal activity against clinical isolate fluconazole-resistant Candida albicans CA632 assessed as inhibition of fungal growth measured after 24 hrs by CLSI based microtiter plate analysis. The class given is functional.
In data set [16] the test system is Nakaseomyces glabratus. Briefly: Antifungal activity against clinical isolate fluconazole-resistant Candida glabrata CG2 assessed as inhibition of fungal growth measured after 24 hrs by CLSI based microtiter plate analysis. The class given is functional.
Data set [17] concerns Candida albicans. Briefly: Antifungal activity against clinical isolate fluconazole-resistant Candida albicans DSY296 harbouring TAC1 mutation overexpressing efflux pump CdrL and Cdr2 assessed as inhibition of fungal growth measured after 24 hrs by CLSI based microtiter plate analysis. The class given is functional.
In data set [18] the test system is [Candida] auris. Briefly: Antifungal activity against clinical isolate fluconazole-resistant Candida auris CBS12776 assessed as inhibition of fungal growth measured after 24 hrs by CLSI based microtiter plate analysis. The class given is functional. The note with it: Candidozyma auris.
Data set [19] relates to Candida albicans. Briefly: Antifungal activity against clinical isolate Candida albicans YEM15 overexpressing efflux pump CdrL and Cdr2 assessed as inhibition of fungal growth measured after 24 hrs by CLSI based microtiter plate analysis. The class given is functional.
Setting [20] is: Candida albicans, SC5314, read-out: MIC80.
Where [21] appears, read: Candida albicans, SC5314, 24 h, read-out: MIC80.

≈ marks a conversion by molar mass, not a printed value. Calls of active or inactive are those of the source. The rule behind the calls is not given here.

A word on the IC50: it is the concentration at which inhibition is half-maximal. For the compound `C=C1C[C@@]23CC[C@H]4[C@@](C)(CCC[C@@]4(C)C(=O)OCCCCC[n+]4c(C)cc(N)c5ccccc54)[C@@H]2CC[C@]1(O)C3.[I-]`, the hemolysis at 1 h in data set [1] was less than 2%. The MIC80 is 8 µg/mL in data set [2] (setting [20]) and 4 µg/mL in [4]. The IC50 at 4 h in [3] came out at 6.53 µg/mL; in data set [5], 8.34 µg/mL.
As to `C=C1C[C@@]23CC[C@H]4[C@@](C)(CCC[C@@]4(C)C(=O)OCCCc4c5[n+](cc6c(OC)c(OC)ccc46)CCc4cc6c(cc4-5)OCO6)[C@@H]2CC[C@]1(O)C3.[I-]`, the hemolysis at 1 h in data set [1] is less than 2%. The MIC80 in data set [2] (setting [20]) stood at 8 µg/mL; in data set [4], 4 µg/mL. Further, the values for the IC50 at 4 h in data set [3] and in [5] were 4.79 µg/mL and 1.32 µg/mL, respectively.
As to `C=C1C[C@@]23CC[C@H]4[C@@](C)(CCC[C@@]4(C)C(=O)OCCC[P+](c4ccccc4)(c4ccccc4)c4ccccc4)[C@@H]2CC[C@]1(O)C3.[I-]`, the hemolysis at 1 h in [1] turned out to be 5.9%. For the same compound, the MIC80 in data set [2] (setting [20]) and in data set [4] was 16 µg/mL throughout. Moreover, the results for the IC50 at 4 h in [3] and in data set [5] were 3.59 µg/mL and 6.94 µg/mL, respectively.
Take `C=C1C[C@@]23CC[C@H]4[C@@](C)(CCC[C@@]4(C)C(=O)OCCCOc4ccc(C(=N)N)cc4)[C@@H]2CC[C@]1(O)C3`: the MIC80 in [6] stood at 8 µg/mL (≈ 16.2 µM); in data set [7], 8 µg/mL (≈ 16.2 µM); in data set [8] it was 8 µg/mL (≈ 16.2 µM); in [9], 8 µg/mL (≈ 16.2 µM); in [10] it was 16 µg/mL (≈ 32.3 µM); in data set [11], 8 µg/mL (≈ 16.2 µM). The MIC80 in data set [2] (24 h) was 8 µg/mL (≈ 16.2 µM); in data set [2] (setting [21]), 4 µg/mL (≈ 8.09 µM); in data set [12], 8 µg/mL (≈ 16.2 µM); in [14], 16 µg/mL (≈ 32.3 µM); in data set [15], 8 µg/mL (≈ 16.2 µM); in data set [4], 2 µg/mL (≈ 4.04 µM). The MIC80 in [16] was determined as 8 µg/mL (≈ 16.2 µM); in [17], 8 µg/mL (≈ 16.2 µM); in data set [18], 16 µg/mL (≈ 32.3 µM); in data set [19] it was 8 µg/mL (≈ 16.2 µM). Moreover, the hemolysis at 1 h in data set [1] was less than 2%. Moreover, the figures for the half-inhibitory concentration (IC50) at 4 h in [3] and in [5] were greater than 32 µg/mL and 23.6 µg/mL (≈ 47.7 µM), respectively. The Drug uptake result in data set [13] is “Active”.
As to `Cc1ccc(Sc2ccccc2N2CCN(CCCOc3ccc(C(=N)N)cc3)CC2)c(C)c1`, the MIC80 in data set [6], in [7], in data set [8], in data set [9], in data set [10] and in data set [11] was 4 µg/mL (≈ 8.43 µM) in each case. Also, the MIC80 was 4 µg/mL (≈ 8.43 µM) in data set [2] (setting [21]); 8 µg/mL (≈ 16.9 µM) in [12]; 8 µg/mL (≈ 16.9 µM) in data set [14]; 4 µg/mL (≈ 8.43 µM) in [15]; 8 µg/mL (≈ 16.9 µM) in data set [16]; 4 µg/mL (≈ 8.43 µM) in data set [17]. Further, the MIC80 was found to be 8 µg/mL (≈ 16.9 µM) in [18] and 4 µg/mL (≈ 8.43 µM) in data set [19]. Moreover, in data set [2], the MIC entry is “inactive”. Also, the Drug uptake entry in [13] is given as “Active”.
On to `C=C1C[C@@]2(CC)[C@@H](CC[C@@]2(O)c2cn(CCCOc3ccc(C(=N)N)cc3)nn2)[C@@H]2CCC3=CCCC[C@@H]3[C@@H]12`, for which the MIC80 turned out to be 64 µg/mL (≈ 121 µM) in [6]; 64 µg/mL (≈ 121 µM) in data set [7]; 32 µg/mL (≈ 60.4 µM) in data set [8]; 64 µg/mL (≈ 121 µM) in data set [9]; 64 µg/mL (≈ 121 µM) in data set [10]; 64 µg/mL (≈ 121 µM) in [11]. The MIC80 in data set [2] (setting [21]) amounted to 32 µg/mL (≈ 60.4 µM); in [12] it was 64 µg/mL (≈ 121 µM); in [14] it was 64 µg/mL (≈ 121 µM); in [15], 32 µg/mL (≈ 60.4 µM); in data set [16], 64 µg/mL (≈ 121 µM); in data set [17], 64 µg/mL (≈ 121 µM). In addition, the MIC80 in [18] and in data set [19] was 64 µg/mL (≈ 121 µM) throughout. For the same compound, in [2], the MIC entry is “inactive”. For the same compound, the Drug uptake result in data set [13] is listed as “Active”.
As for `C=C1C[C@@]23CC[C@H]4[C@@](C)(CCC[C@@]4(C)C(=O)OCCCn4c(CC)[n+](C)c5ccccc54)[C@@H]2CC[C@]1(O)C3.[I-]`, in [1], the hemolysis at 1 h is less than 2%. For the same compound, the MIC80 is 16 µg/mL in data set [2] (setting [20]) and 8 µg/mL in [4]. In addition, the IC50 at 4 h was greater than 32 µg/mL in data set [3] and 16.5 µg/mL in data set [5].
